Measured values from patent US10072304B2, “Nuclear localization of Src-family tyrosine kinases is required for growth factor-induced euchromatinization” (National University Corporation Chiba University, priority 2009, dated 2018).

Tested on: nuclear SFKs
Experiment: In vitro tyrosine phosphorylation of purified nuclei (kinase activity of nuclear SFKs)
Format: biochemical, monkey
Details: purified COS-1 nuclei, 10 μM PP2, FIGS. 30 and 31
Description: Nuclei were prepared as described previously. In brief, COS-1 and HeLa cells were swollen in hypotonic buffer (10 mM HEPES-KOH, pH 7.9, 1.5 mM MgCl2, 10 mM KCl, 0.5 mM DTT, and 1 mM Na3VO4) containing protease inhibitors (2 mM phenylmethylsulfonyl fluoride, 50 μg/mL aprotinin, 100 μM leupeptin, and 25 μM pepstatin A) at 4° C. for 20 min, followed by homogenization with 20 strokes in a tight-fitting 1-ml Dounce homogenizer. After cell suspension was centrifuged at 200×g for 5 min, cell pellets were resuspended in 0.25 M sucrose containing protease inhibitors, 10 mM MgCl2, and 1 mM Na3VO4. […]
Confocal and Nomarski differential-interference-contrast images were obtained using a Fluoview FV500 confocal laser scanning microscope with a 40×1.00 NA oil and a 100×1.35 NA oil immersion objective (Olympus, Tokyo) and an LSM 510 confocal laser scanning microscope with a 63×1.40 NA oil immersion objective (Zeiss), as described. […] Emission signals were detected between 505 and 525 nm for fluorescein, at more than 560 nm for rhodamine and more than 610 nm for PI [44]. […] Fluorescence intensity plots of anti-histone H3K4me3, anti-ATF-2 pT69/71 and anti-HP1α antibody and PI staining (see FIGS. 18B, 19B, and 20B, respectively) were generated using Fluoview version 4.3 software (Olympus, Tokyo). […]

## CC(C)(C)n1nc(-c2ccc(Cl)cc2)c2c(N)ncnc21 [PP2]
  ATP-induced increase in nuclear tyrosine phosphorylation in purified nuclei: significantly inhibited
